# Values quoted from earlier work in patent publication US11478001B2, “Methods of administering a pre-operative carbohydrate-rich beverage composition” (ClearFast Inc., priority 2014, dated 2022).
# Settings: short-term oral administration
smiles,measurement,value
NC(=O)NCCC[C@H](N)C(=O)O [L-citrulline],safety and tolerability,safe and well tolerated
